The data set is described as follows: Meloxicam solubility enhancement test of sodium methoxide (saturation, HPLC). On the procedure: Meloxicam was mixed with an equivalent amount of sodium methoxide, and the mixture was dissolved to the saturation point in distilled water, methanol, ethylacetate, tetrahydrofuran or N-methylpyrrolidone. The resulting solution was subjected to high performance liquid chromatography to measure the meloxicam solubility.
Only Meloxicam without using sodium methoxide was dissolved to the saturation point in distilled water, methanol, ethylacetate, tetrahydrofuran or N-methylpyrrolidone, and then the resulting solution was subjected to high performance liquid chromatography to measure the meloxica solubility.

Read-outs that look alike come from different tables or passages of the source.

As for `Cc1cnc(NC(=O)C2=C(O)c3ccccc3S(=O)(=O)N2C)s1` [Comparative Example 1, Meloxicam], the Meloxicam solubility is 60 µg/mL.
Same read-out and setting: the value for `Cc1cnc(NC(=O)C2=C(O)c3ccccc3S(=O)(=O)N2C)s1` [Comparative Example 2, Meloxicam] was 430 µg/mL.
For `Cc1cnc(NC(=O)C2=C(O)c3ccccc3S(=O)(=O)N2C)s1` [Comparative Example 3, Meloxicam], the Meloxicam solubility (saturation, HPLC) was 1280 µg/mL.
Take `Cc1cnc(NC(=O)C2=C(O)c3ccccc3S(=O)(=O)N2C)s1` [Comparative Example 4, Meloxicam]: the Meloxicam solubility was determined as 21910 µg/mL.
Same read-out and setting: the value for `Cc1cnc(NC(=O)C2=C(O)c3ccccc3S(=O)(=O)N2C)s1` [Comparative Example 5, Meloxicam] was 92700 µg/mL.

Values taken from patent US20090117192A1, “COMPOSITION FOR TRANSDERMAL ABSORPTION AND FORMULATION COMPRISING A POLYMERIC MATRIX FORMED THEREFROM” (priority 2007, published 2009).
